# According to US20090023697A1, “ANALGESIA METHOD” (Vernalis (R&D) Limited, priority 2003, published 2009):
# Legend:
# male Wistar rats [1] = assay: Rotarod running test to assess sedation after neurosteroid sustained release emulsions; details: sc sustained release emulsion; for sedation (rotarod run time) at 1 hour after injection: normal run time 120 s
# [2] = in vivo; cited from earlier work
# [3] = given ip or intragastrically; cited from earlier work
# rats [4] = assay: Tail flick latency (TFL) response to ip morphine: effect of alphadolone on established morphine tolerance
# Description: An observer unaware of the nature of this treatment, saline or alphadolone, made the TFL measurements.
# The TFL responses on day 1 and day 3 were combined for drug treatment and expressed as means SEM. These values were compared to see if tolerance occurred and whether co administration of alphadolone caused reversal of the tolerance effect.
# rats [5] = assay: Electrical current threshold (ECT) test of nociceptive threshold in the tail after alphadolone sustained release emulsion; details: 250 mg/kg alphadolone acetate sc in slow release emulsion
# [6] = dose of alphadolone used for tolerance reversal (10 mg/kg); cited from earlier work
# male Wistar rats [7] = assay: Tail flick latency (TFL) response to ip morphine: effect of sustained release neurosteroid on development of morphine tolerance
# [8] = alphadolone alone; cited from earlier work
# mice = details: cited from earlier work
# [9] = alphadolone 250 mg/kg, alphaxalone 80 mg/kg
compound,measurement,setting,value
CC(=O)[C@H]1CC[C@H]2[C@@H]3CC[C@H]4C[C@H](O)CC[C@]4(C)[C@H]3C(=O)C[C@]12C [alphaxalone],sedation (rotarod run time) at 1 hour after injection,male Wistar rats [1]; [9],significantly greater than that caused by alphadolone
same,duration of significant sedative effects (rotarod),male Wistar rats [1]; alphaxalone 80 mg/kg,four
same,potency as an anaesthetic compared with alphadolone,[2],three
same,antinociception,[3],no antinociception
same,sedation,[3],causes sedation
"CC(=O)OCC(=O)[C@H]1CC[C@H]2[C@@H]3CC[C@H]4C[C@H](O)CC[C@]4(C)[C@H]3C(=O)C[C@]12C [alphadolone, 21-acetoxy-3alpha-hydroxy-5alpha-pregnane-11, 20-dione]","TFL response, day 3 (post tolerance), morphine co administered with alphadolone","rats [4]; 6.4 mg/kg morphine ip plus alphadolone 10 mg/kg after two days morphine emulsion, mean SEM, n=9",78.6 9.8 % MPE
same,day 3 response compared with day 1 response before tolerance,"rats [4]; morphine 6.4 mg/kg ip co administered with alphadolone 10 mg/kg, p>0.05 one way ANOVA",equal to that produced on day 1
same,sedation (rotarod run time) later than 1 hour after injection,male Wistar rats [1]; alphadolone 250 mg/kg,no sedation
same,sedation (rotarod run time) at 1 hour after injection,male Wistar rats [1]; [9],small but significant amount of sedation
same,loss of consciousness / looking sedated after the injection,rats [5],did not cause any rat to lose consciousness or in any way to look sedated
same,time by which nociceptive threshold (ECT) was significantly increased,rats [5]; n=10,one
same,time nociceptive threshold (ECT) remained elevated,"rats [5]; n=10, readings up to 44 hours",24 h
same,potentiation of morphine TFL effects,[6],potentiate morphine TFL effects
same,sedation observed during the course of the tolerance experiment,"male Wistar rats [7]; sc emulsions with morphine emulsion, alphadolone 250 mg/kg/day, alphaxalone 80 mg/kg/day",no overt signs of sedation
same,"post treatment TFL values (6.4 mg/kg ip morphine, day 3) compared with vehicle treated controls","male Wistar rats [7]; two days sc morphine emulsion plus sc emulsion of alphadolone 250 mg/kg/day or alphaxalone 80 mg/kg/day, Students t test",statistically significant difference
same,antinociception,[3],causes antinociceptive effects
same,sedation,[3],without sedation
same,antinociceptive effects in the TFL test,[8],no antinociceptive effects
CC(=O)[C@H]1CC[C@H]2[C@@H]3CCC4=CC(=O)CC[C@]4(C)[C@H]3CC[C@]12C [progesterone],prevention of morphine tolerance,mice,positive results
CN1CC[C@]23c4c5ccc(O)c4O[C@H]2[C@@H](O)C=C[C@H]3[C@H]1C5 [morphine],"tail flick latency response, day 1 (pre tolerance)","rats [4]; immediate release morphine 6.4 mg/kg ip, both groups, n=9",approximately 80 % MPE
dehydroepiandrosterone sulphate,prevention of morphine tolerance,mice,positive results
CC(=O)[C@H]1CC[C@H]2[C@@H]3CC[C@H]4C[C@H](O)CC[C@]4(C)[C@H]3CC[C@]12C [allopregnanolone],prevention of morphine tolerance,mice,positive results
CC(=O)C1CCC2C3CC=C4CC(OS(=O)(=O)O)CCC4(C)C3CCC12C (centres unmarked) [pregnenolone sulphate],prevention of morphine tolerance,mice,positive results
